Assay results taken from patent publication US8653132B2, “Phosphaplatins and their use in pharmaceutical compositions” (Ohio University, priority 2007, dated 2014).
“Also recorded” adds a separate entry of the source.

Key:
[1] = system: A2780 human ovarian cancer cells; test: Clonogenic assay, A2780; type: cell-based; settings: 1 hour drug treatment, 1 week colony formation, read-out: IC50 A780
Procedure: (§1) Human ovarian cancer cells, A2780, were obtained from Dr. Thomas Hamilton (Fox Chase Cancer Center, Philadelphia, Pa.). Cells were cultured on monolayer using RPMI 1640 supplemented with 10% fetal bovine serum, 2 mM glutamine, 0.25 units/mL insulin and penicillin/streptomycin in a 37 degrees C. incubator continuously gassed with 5% CO2. Cells were subcultured using 0.0625% trypsin in HBSS to maintain cells in exponential growth.
(§2) IC50 values were determined using a clonogenic assay. Briefly, 500 A2780 cells from a single cell suspension were plated onto 60mm Petri plates 24 hours before drug treatment to permit cell attachment. On the day of drug treatment, the medium was decanted and replaced with the drug and these treated cells were placed back into the 37 degrees C. incubator for 1 hour. Triplicate plates were set up for each drug concentration. After the 1 hour drug treatment, the drug containing medium was decanted and replaced with fresh medium. These plates were returned to the 37 degrees C. incubator for 1 week for colony formation. Colonies were fixed and stained using 2% crystal violet in absolute methanol. Colonies containing more than 50 cells were scored. The number of scored colonies from the triplicate plates was averaged and this number was divided by the number of cells plated to obtain a value for the fraction of cells forming colonies. These values for fraction of cells forming colonies were then corrected for plating efficiency by dividing it by the number of cells forming colonies in plates that were not treated with drug.

[2] = system: A2780/C30 cisplatin-resistant ovarian cell line; test: Clonogenic assay, cisplatin/carboplatin-resistant C30; type: cell-based, human; settings: 1 hour drug treatment, 1 week colony formation
Procedure: as §1, with “A cisplatin-resistant Ovarian cell line (C30) (Hamaguchi, et al., 1993),” for “Human ovarian cancer cells, A2780, were”, “Pa.), was treated with the monomeric platinum complexes of the present invention (shown in FIG. 2). This cell line is also cross resistant to carboplatin.” for “Pa.).”, “0.025%” for “0.0625%”
as §2, with “500 C30” for “500 A2780”, “onto 60 mm” for “onto 60mm”, “the one” for “the 1”, “dividing them” for “dividing it”

[3] = system: CHO cell line; test: Cytotoxic assay, CHO; type: cell-based
Text: In some embodiments, the complexes of the present invention are useful for treating various cancers. […] The complexes of the present invention are particularly desirable because they may have reduced toxicity in vivo.

[4] = pKa from 31P chemical shift as a function of pH; type: physicochemical; settings: for pKa1 / pKa2: calculated from phosphorus-31 chemical shifts
[5] = system: A2780 cells; test: Cellular accumulation of platinum by atomic absorption, A2780; type: cell-based, human; settings: for Cellular accumulation of platinum: 1 hr exposure
Procedure: (§3) Platinum content was quantitatively estimated on a Graphite Furnace Atomic Absorption Spectrometer (Perkin Elmer AA-600) from calibration curves established by using cisplatin or pyrodach-2 in water. Cells (5×10^6) were seeded in T75 cm^2 flasks. After 24 h, these cells were then treated with the different concentrations (0, 10, 20, 30 and 50 μM) of cisplatin and pyrodach-2. After 1 hr exposure with the platinum complexes, the drug-containing medium was removed and the cells were washed with ice-cold phosphate-buffered saline (PBS). The cells were then trypsinized and centrifuged into a pellet. Cell pellets were digested in concentrated HNO3 and H2O2 prior to analysis, according to the method of McGahan. Data reported in Table 4 were collected from three independent experiments each was carried out in duplicate. For the cisplatin accumulation, data were obtained from triplicate runs from a single sample at a given concentration.

[6] = system: A2780/C30 cells; test: Cellular accumulation of platinum by atomic absorption, A2780/C30; type: cell-based, human; settings: 1 hr exposure
Procedure: as §3

[7] = system: guanine base; test: Guanine base binding by proton NMR; settings: cisplatin after 48 hours, am-2 96 hours, dach-2 106 hours
Procedure: FIG. 12 is a comparison of guanine base binding (the predominant DNA binding site of cisplatin) among cisplatin (bottom), am-2 (middle), and dach-2 (top) by proton NMR spectroscopy. […] The bottom spectrum was recorded after 48 hours. The middle and top spectra were recorded after 96 and 106 hours, respectively.
(§4) Proton NMR spectroscopic experiments were conducted on a Bruker 500 MHz NMR instrument in 99% (atom) D2O with a water suppression pulse sequence. Samples contained cisplatin (2.0 mM) or pyrodach-2 (2.0 mM) and nucleotides (5′-dGMP, 5′-dAMP, dGpG (5.0 mM)), and, single- and double stranded DNA (calf thymus, 5.0 mM) at pH 7.0 maintained by phosphate and carbonate buffers (10-20 mM). Reactions of cisplatin (0.25 mM) and pyrodach-2 (0.25 mM) with a synthetic 25-mer: 5′-[…]-3′ (SEQ ID NO: 1) (0.25 mM) were also performed under identical conditions. Reactions were carried out up to 7 days, and ^1H and ^31P NMR spectra were recorded at regular time intervals. Usually, a pulse width of 5 μs with a 1.0 s repetition delay was used for the measurements. Typically, a sweepwidth of 10,000 Hz and 32 K data points were selected to collect the Free Induction Decays. A line broadening factor of 1 Hz was for applied Fourier transformation. The chemical shifts, with reference to H—O-D peak, are at 4.67 ppm.

[8] = system: synthetic 25-mer oligonucleotide (SEQ ID NO:1); test: Platinum-DNA binding by NMR, 25-mer oligonucleotide; settings: 1H NMR, identical conditions for both complexes
Procedure: (§5) In the associated experiment, dach-2 was allowed to react with double-stranded calf-thymus DNA, a synthetic oligonucleotide (5′-[…]-3′; SEQ ID NO:1), a dinucleotide (dGpG), and nucleotide monophosphates (5′-dGMP and 5′-dAMP) at concentrations as much as 250-times higher than those of cellular doses. The extent of DNA binding was monitored by ^1H NMR spectroscopy. In parallel, similar reactions with cisplatin were conducted under identical conditions.
as §4, with “The chemical shifts, with reference to H—O-D peak, are at 4.67 ppm.” left out

[9] = system: calf-thymus DNA, oligonucleotide, dGpG, 5'-dGMP and 5'-dAMP; test: Platinum binding to DNA and nucleotides by NMR; settings: 1H NMR, up to seven days
Procedure: as §5
as §4, with “The chemical shifts, with reference to H—O-D peak, are at 4.67 ppm.” left out

[10] = system: fas; test: Apoptotic gene array, real-time PCR: fas; type: cell-based; settings: preliminary
Procedure: (§6) Preliminary gene expression experiments involving complexes of the present invention as compared to cisplatin (data not shown) were carried out with an apoptotic array containing 84 genes that includes the BCL2 superfamily, both pro- and anti-apoptotic, caspases, the BIR-family, TNF receptor […] factors, p53 and its congeners, and fas associated members by real-time PCR. A closer look at the two sets of gene expressions clearly indicates a number of differences in the expression patterns. […] Specifically, fas was over-expressed by 6-fold compared to the control, and TNFRS genes such as TNFRSF-10B was overexpressed by 2-3 folds over controls. These latter receptor factors belong to the fas superfamily.

[11] = system: BAK1; test: Apoptotic gene array, real-time PCR: BAK1; type: cell-based; settings: preliminary
Procedure: as §6

[12] = system: BAX; test: Apoptotic gene array, real-time PCR: BAX; type: cell-based; settings: preliminary
Procedure: as §6

[13] = system: UMSCC10b (Cisplatin-sensitive) cells; settings: from Zheng et al., Clinical Cancer Research 1997; cited from earlier work
[14] = system: A2780/C30 cells; test: Cellular accumulation of platinum by atomic absorption, A2780/C30; type: cell-based, human; settings: at its IC50 value

SMILES	IC50 [1]	IC50 [2]	IC50 [3]	pKa1 [4]	pKa2 [4]	other results
NC1CCCCC1N.O=P([O-])(O)OP(=O)([O-])O.[OH-].[OH-].[Pt+4] [dach-4, (Trans-1,2-cyclohexanediamine)-trans-dihyroxo(dihydrogenpyrophosphato)platinum(IV)]	180 ± 15 µM	155 ± 17 µM	116 ± 17 µM			
NCCN.O=P([O-])(O)OP(=O)([O-])O.[OH-].[OH-].[Pt+4] [en-4, 1,2-Ethanediamine-trans-dihydroxo(dihydrogenpyrophosphato)platinum(IV)]	170 ± 33 µM	> 200 µM	> 200 µM	<2	4.3 ± 0.1	
N.N.[Cl][Pt][Cl] [Cisplatin, cisdiamminedichloroplatinum(II), reference compound]	7.5 ± 1.5 µM	110 ± 11.3 µM	29 ± 3 µM			Cellular accumulation of platinum ([5]; A2780, 10 μM): 3.00 ± 0.05 ng/10^6 cells; Cellular accumulation of platinum ([5]; A2780, 20 μM): 5.00 ± 0.06 ng/10^6 cells; Cellular accumulation of platinum ([5]; A2780, 30 μM): 6.00 ± 0.10 ng/10^6 cells; Cellular accumulation of platinum ([5]; A2780, 50 μM): 20.00 ± 1.00 ng/10^6 cells; accumulation in A2780 cells ([5]; at 10 μM concentration): 3.0 ng Pt/10^6 cells; Cellular accumulation of platinum ([6]; A2780/C30, 10 μM): 1.00 ± 0.10 ng/10^6 cells; Cellular accumulation of platinum ([6]; A2780/C30, 20 μM): 2.00 ± 0.40 ng/10^6 cells; Cellular accumulation of platinum ([6]; A2780/C30, 30 μM): 2.00 ± 0.50 ng/10^6 cells; Cellular accumulation of platinum ([6]; A2780/C30, 50 μM): 5.00 ± 1.00 ng/10^6 cells; guanine base binding (H8 signal) [7]: additional signal at 8.43 ppm for H8 proton due to guanine binding to cisplatin; DNA binding, 25-mer oligonucleotide [8]: readily forms covalent adducts with DNA; adduct formation with nucleotides [9]: readily formed adducts with all the nucleotides; fas over-expression compared to the control [10]: no significant over-expression; also recorded: marginal changes; BAK1 overexpression [11]: did not make significant changes; BAX overexpression [12]: did not make significant changes; IC50 [13]: 17 µM; platinum accumulation in the resistant cell lines [14]: > 5 ng Pt/10^6 cells
N.N.O=P1(O)[O][Pt][O]P(=O)(O)O1 [am-2, Diammine(dihydrogen pyrophosphato)platinum(II)]	100 ± 11 µM	> 200 µM	120 ± 30 µM	2.9 ± 0.3	4.7 ± 0.2	pKa1 (value in parentheses) ([4]; second value printed in parentheses under pKa1, not explained): (3.8 ± 0.1); guanine base binding (H8 signal) [7]: only indicates the unbound guanine H8 signal but not platinum bound signal
N.N.O=C([O-])C1(C(=O)[O-])CCC1.[Pt+2] [Carboplatin, diammine-1,1-dicarcarboxylatocyclobutane-platinum(II), reference compound]	90 ± 13 µM	> 200 µM	> 200 µM			
NCCN.O=P([O-])(O)OP(=O)([O-])O.[Pt+2] [en-2, 1,2-Ethanediamine(dihydrogenpyrophosphato)platinum(II)]				2.2 ± 0.1	4.4 ± 0.1	
N.N.O=P1(O)OP(=O)(O)[O][Pt]([OH])([OH])[O]1 [am-4, Cis-diammine-trans-dihydroxo(dihydrogen pyrophosphato)platinum (IV)]	175 ± 22 µM	> 200 µM	> 200 µM	2.0 ± 0.1	4.7 ± 0.1	
